From patent US20190233884A1 (University of Southern California, priority 2016, published 2019)

Test system: patients with refractory metastatic colorectal cancer (mCRC)
Assay: PFS, OS and disease control in the training (evaluation) cohort of refractory mCRC patients receiving TAS-102 (n=52, Japan), by baseline characteristics, SNP genotype and toxicity
Assay type: in vivo, human
Settings: evaluation cohort; for HR OS (95% CI) / HR PFS (95% CI): XRCC3 rs861539 G/A vs G/G (Ref.)
Description: All patients underwent the treatment in salvage-line setting. […]
(§1) Genomic DNA was extracted from peripheral whole blood in patients of all cohorts using the QIAmp Kit (Qiagen, Valencia, Calif., USA) according to the manufacturer's protocol (www.qiagen.com). The candidate SNPs were genotyped using PCR-based direct DNA sequence analysis by ABI 3100A Capillary Genetic Analyzer and Sequencing Scanner v1.0 (Applied Biosystems). Amplification of extracted DNA was carried out using both forward and reverse primers for each gene polymorphism as shown in Table 1. […] The investigators analyzing SNPs were blinded to the clinical data of the study patients.
The primary endpoint in this study was progression-free survival (PFS), and the secondary endpoints were overall survival (OS) and disease control rate (DCR). PFS was calculated from the date of starting treatment to the first observation of disease progression or death from any cause. If a patient had no disease progression or death, PFS was censored at the date of last follow up. OS was calculated from the date of starting treatment until the date of death from any cause or the date of the last follow-up, at which point OS was censored. The disease control rate (DCR) was defined as the proportion of patients who achieved a stable disease (SD) or […] according to RECISTv1.1. Chi-square test was used to examine the difference in baseline patient characteristics among the three cohorts. Allelic distribution of all SNPs by ethnicity for deviation from Hardy-Weinberg equilibrium and the allelic frequencies of SNPs were tested using the Chi-square tests with one degree of freedom. The associations between candidate SNPs and disease control, and toxicities were examined using contingency tables and Fisher's exact test. The associations of SNPs with PFS and OS were analysed using Kaplan-Meier curves and the log-rank test. Because the true mode of inheritance of candidate SNPs was not established yet, a codominant or dominant genetic model if appropriate was considered.
All patients underwent the treatment in salvage-line setting. […] In all patients, adverse events were graded according to the Common Terminology Criteria for Adverse Events, version 4.0. […]
as §1, with “tested” for “genotyped”, “Biosystems).” for “Biosystems). Amplification of extracted DNA was carried out using both forward and reverse primers for each gene polymorphism as shown in Table 1.”, “data.” for “data of the study patients.”
The primary endpoint in this study was progression-free survival (PFS), and the secondary endpoints were overall survival (OS) and disease control rate (DCR).

[1] = Adjuvant history No vs Yes, univariate
[2] = Histology Mod-por vs well, univariate
[3] = KRAS Mutant vs Wild type, univariate
[4] = LN metastasis No vs Yes, univariate
[5] = Liver metastasis No vs Yes, univariate
[6] = Lung metastasis No vs Yes, univariate
[7] = Number of metastases >2 vs ≤2, univariate

Trifluridine/tipiracil [TAS-102]
PD, patients n (%) (Pin1 rs2233679 T/T): 4 (57%) | Disease Control Rate SD, patients n (%) (RAD51 rs1801320 G/C): 3 (43%) | PD, patients n (%) (RAD51 rs1801320 G/C): 4 (57%) | Disease Control Rate SD, patients n (%) (RAD51 rs1801320 G/G): 12 (31%) | PD, patients n (%) (RAD51 rs1801320 G/G): 27 (69%) | Disease Control CR/PR/SD, patients n (%) (XRCC3 rs861539 G/A): 7 (44%) | Median PFS (95% CI) (XRCC3 rs861539 G/A): 3.8 (1.6, 6.6) months | OS (XRCC3 rs861539 G/A): 15.6 months | PD, patients n (%) (XRCC3 rs861539 G/A): 9 (56%) | HR OS (95% CI) (multivariable): 0.31 (0.09, 1.03) | HR PFS (95% CI) (multivariable): 0.52 (0.24, 1.11) | HR OS (95% CI) (univariate): 0.25 (0.08, 0.79) | HR PFS (95% CI) (univariate): 0.44 (0.21, 0.92) | Disease Control CR/PR/SD, patients n (%) (XRCC3 rs861539 G/G): 8 (27%) | Median OS (95% CI) (XRCC3 rs861539 G/G): 6.3 (4.9, 12.4+) months | Median PFS (95% CI) (XRCC3 rs861539 G/G): 2.3 (1.9, 3.3) months | OS (XRCC3 rs861539 G/G): 6.3 months | PD, patients n (%) (XRCC3 rs861539 G/G): 22 (73%) | Disease Control Rate SD, patients n (%) (p21 rs1059234 Any C): 10 (29%) | PD, patients n (%) (p21 rs1059234 Any C): 25 (71%) | Disease Control Rate SD, patients n (%) (p21 rs1059234 C/C): 4 (31%) | PD, patients n (%) (p21 rs1059234 C/C): 9 (69%) | Disease Control Rate SD, patients n (%) (p21 rs1059234 T/C): 6 (27%) | PD, patients n (%) (p21 rs1059234 T/C): 16 (73%) | Disease Control Rate SD, patients n (%) (p21 rs1059234 T/T): 5 (45%) | PD, patients n (%) (p21 rs1059234 T/T): 6 (55%) | Disease Control Rate SD, patients n (%) (p21 rs1801270 A/A): 4 (31%) | PD, patients n (%) (p21 rs1801270 A/A): 9 (69%) | Disease Control Rate SD, patients n (%) (p21 rs1801270 A/C): 6 (29%) | PD, patients n (%) (p21 rs1801270 A/C): 15 (71%) | Disease Control Rate SD, patients n (%) (p21 rs1801270 Any C): 11 (33%) | PD, patients n (%) (p21 rs1801270 Any C): 22 (67%) | Disease Control Rate SD, patients n (%) (p21 rs1801270 C/C): 5 (42%) | PD, patients n (%) (p21 rs1801270 C/C): 7 (58%) | Disease Control Rate SD, patients n (%) (p53 rs1042522 Any G): 9 (35%) | PD, patients n (%) (p53 rs1042522 Any G): 17 (65%) | Disease Control Rate SD, patients n (%) (p53 rs1042522 C/C): 6 (30%) | PD, patients n (%) (p53 rs1042522 C/C): 14 (70%) | Disease Control Rate SD, patients n (%) (p53 rs1042522 G/G): 2 (33%) | PD, patients n (%) (p53 rs1042522 G/G): 4 (67%) | HR for OS (ATM rs609429, multivariable adjusted for liver metastases and adjuvant history): 0.24 | HR for OS (ATM rs609429 any G vs C/C, univariate): 0.37 | Overall Survival Median, months (Adjuvant history No): 6.3 months | Progression-Free Survival Median, months (Adjuvant history No): 2.1 months | Overall Survival HR [1]: 2.44 | Progression-Free Survival HR [1]: 1.90 | Overall Survival Median, months (Adjuvant history Yes): 8.7 months | Progression-Free Survival Median, months (Adjuvant history Yes): 3.7 months | Overall Survival Median, months (Age <61): 8.1 months | Progression-Free Survival Median, months (Age <61): 2.2 months | Overall Survival Median, months (Age ≥61): 6.3 months | Progression-Free Survival Median, months (Age ≥61): 3.0 months | Overall Survival HR (Age ≥61 vs <61, univariate): 1.30 | Progression-Free Survival HR (Age ≥61 vs <61, univariate): 0.81 | PFS (CHEK2 rs2267130 any C allele): 3.4 months | HR for PFS (CHEK2 rs2267130 any C vs T/T, univariate): 0.48 | Overall Survival Median, months (Histology Mod-por): 8.7 months | Progression-Free Survival Median, months (Histology Mod-por): 3.0 months | Overall Survival HR [2]: 0.52 | Progression-Free Survival HR [2]: 0.94 | Overall Survival Median, months (Histology well): 6.3 months | Progression-Free Survival Median, months (Histology well): 2.1 months | Overall Survival Median, months (KRAS Mutant): 8.3 months | Progression-Free Survival Median, months (KRAS Mutant): 3.3 months | Overall Survival HR [3]: 0.42 | Progression-Free Survival HR [3]: 0.51 | Overall Survival Median, months (KRAS Wild type): 7.2 months | Progression-Free Survival Median, months (KRAS Wild type): 2.1 months | Overall Survival Median, months (LN metastasis No): 7.2 months | Progression-Free Survival Median, months (LN metastasis No): 2.5 months | Overall Survival HR [4]: 1.06 | Progression-Free Survival HR [4]: 1.27 | Overall Survival Median, months (LN metastasis Yes): 8.3 months | Progression-Free Survival Median, months (LN metastasis Yes): 3.0 months | Overall Survival Median, months (Liver metastasis No): 8.7 months | Progression-Free Survival Median, months (Liver metastasis No): 4.2 months | Overall Survival HR [5]: 0.57 | Progression-Free Survival HR [5]: 0.43 | Overall Survival Median, months (Liver metastasis Yes): 7.2 months | Progression-Free Survival Median, months (Liver metastasis Yes): 2.3 months | Overall Survival Median, months (Lung metastasis No): 6.3 months | Progression-Free Survival Median, months (Lung metastasis No): 2.5 months | Overall Survival HR [6]: 1.44 | Progression-Free Survival HR [6]: 1.19 | Overall Survival Median, months (Lung metastasis Yes): 8.3 months | Progression-Free Survival Median, months (Lung metastasis Yes): 2.9 months | Overall Survival Median, months (Number of metastases >2): 8.1 months | Progression-Free Survival Median, months (Number of metastases >2): 2.9 months | Overall Survival HR [7]: 1.63 | Progression-Free Survival HR [7]: 1.22
